The test system of one assay is P. aeruginosa. In words: Biofilm growth assay (spreading biofilm on semi-solid agar). Type of assay: cell-based. Conditions: Pseudomonas aeruginosa.
Another assay has as its system E. coli. The description is as above. Conditions: Escherichia coli. Type of assay: cell-based. The procedure, abridged:
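Spreading (swarming) biofilm on semi-solid agar: E. coli on LB with 0.6% agar and 0.5% glucose; P. aeruginosa on M8 agar with 0.2% glucose, 100 µM CaCl2, 1 mM MgSO4, 0.5% Casamino acids. Compound in medium; 5 µL overnight culture spotted centrally, 37°C overnight. Value: concentration (µg/ml) giving ≥85% reduction in spread area versus negative control.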

The mark [1] stands for this setting: Table 2, concentration that reduces the area of the spreading biofilm by >= 85%, read-out: P. aeruginosa.
Setting [2] is: Table 2, concentration that reduces the area of the spreading biofilm by >= 85%, read-out: E. coli.
[3] abbreviates: Table 3, concentration that reduces the area of the spreading biofilm by >= 85%, read-out: P. aeruginosa.
The mark [4] stands for this setting: Table 3, concentration that reduces the area of the spreading biofilm by >= 85%, read-out: E. coli.
Setting [5] is: Table 1, concentration that reduces the area of the spreading biofilm vs negative controls by >= 85%, > means not effective at this concentration, read-out: P. aeruginosa.
The mark [6] stands for this setting: Table 1, concentration that reduces the area of the spreading biofilm vs negative controls by >= 85%, > means not effective at this concentration, read-out: E. coli.
[7] abbreviates: Table 4, concentration that reduces the area of the spreading biofilm by >= 85%, read-out: P. aeruginosa.
The mark [8] stands for this setting: Table 4, concentration that reduces the area of the spreading biofilm by >= 85%, read-out: E. coli.

The structures appear in SMILES notation. Values after ≈ are worked out from the molar mass of the structure shown. Where two headings read alike, the source gives them in different places.

On to `CC1(C)CC[C@]2(C(=O)O)CC[C@]3(C)C(=C(c4ccco4)CC4[C@@]5(C)Cc6c(n[nH]c6N)C(C)(C)C5CC[C@]43C)C2C1` (stereo partly drawn) [Compound 7, (4aS,6aS,6bR,13aR)-12-Amino-15-(furan-2-yl)-2,2,6a,6b,9,9,13a-heptamethyl-2,3,4,4a,5,6,6a,6b,7,8,8a,9,11,13,13a,13b,14,15b-octadecahydro-1H-chryseno[1,2-f]indazole-4a-carboxylic acid], for which the IC85 was 0.25 µg/mL (≈ 0.447 µM) in the assay on P. aeruginosa (setting [1]) and 1 µg/mL (≈ 1.79 µM) in the assay with E. coli (setting [2]).
Take `CC1(C)CC[C@]2(C(=O)O)CC[C@]3(C)C(=C(c4coc(CN5CCCC5)c4)CC4[C@@]5(C)Cc6c(n[nH]c6N)C(C)(C)C5CC[C@]43C)C2C1` (stereo partly drawn) [Compound 38, (4aS,6aS,6bR,13aR)-12-Amino-2,2,6a,6b,9,9,13a-heptamethyl-15-(5-(pyrrolidin-1-ylmethyl)furan-3-yl)-2,3,4,4a,5,6,6a,6b,7,8,8a,9,11,13,13a,13b,14,15b-octadecahydro-1H-chryseno[1,2-f]indazole-4a-carboxylic acid]: the results for the IC85 with P. aeruginosa (setting [3]) and in the assay with E. coli (setting [4]) were 1 µg/mL (≈ 1.56 µM) and 2 µg/mL (≈ 3.11 µM), respectively.
In the same order, the values of `CC1(C)CC[C@]2(C(=O)O)CC[C@]3(C)C(=C(c4ccccc4CN4CCOCC4)CC4[C@@]5(C)Cc6c(n[nH]c6N)C(C)(C)[C@@H]5CC[C@]43C)[C@@H]2C1` (stereo partly drawn) [Compound 59, (4aS,6aS,6bR,8aR,13aR,15bS)-12-Amino-2,2,6a,6b,9,9,13a-heptamethyl-15-(2-(morpholinomethyl)phenyl)-2,3,4,4a,5,6,6a,6b,7,8,8a,9,11,13,13a,13b,14,15b-octadecahydro-1H-chryseno[1,2-f]indazole-4a-carboxylic acid] are 0.5 µg/mL (≈ 0.747 µM) and more than 1 µg/mL.
For the compound `CC1(C)CC[C@]2(c3n[nH]c(O)c3N3CCNCC3)CC[C@]3(C)C(=CCC4[C@@]5(C)Cc6c(n[nH]c6N)C(C)(C)C5CC[C@]43C)C2C1` (stereo partly drawn) [Compound 90, 3-((4aS,6aS,6bR,13aR)-12-Amino-2,2,6a,6b,9,9,13a-heptamethyl-2,3,4,4a,5,6,6a,6b,7,8,8a,9,11,13,13a,13b,14,15b-octadecahydro-1H-chryseno[1,2-f]indazol-4a-yl)-4-(piperazin-1-yl)-1H-pyrazol-5-ol], the IC85 in the assay with P. aeruginosa (read-out: P. aeruginosa (µg/ml)) was determined as 0.5 µg/mL (≈ 0.812 µM); in the assay on E. coli (read-out: E. coli (µg/ml)), 1 µg/mL (≈ 1.62 µM).
For `CN(C)c1cccc(C2=C3C4CC(C)(C)CC[C@]4(C(=O)O)CC[C@@]3(C)[C@]3(C)CCC4C(C)(C)c5n[nH]c(N)c5C[C@]4(C)C3C2)c1` (stereo partly drawn) [Compound 21, (4aS,6aS,6bR,13aR)-12-Amino-15-(3-(dimethylamino)phenyl)-2,2,6a,6b,9,9,13a-heptamethyl-2,3,4,4a,5,6,6a,6b,7,8,8a,9,11,13,13a,13b,14,15b-octadecahydro-1H-chryseno[1,2-f]indazole-4a-carboxylic acid], the IC85 was 0.5 µg/mL (≈ 0.816 µM) in the assay on P. aeruginosa (setting [3]) and more than 2 µg/mL in the assay on E. coli (setting [4]).
On to `CN(C)c1ccc(C2=C3C4CC(C)(C)CC[C@]4(C(=O)O)CC[C@@]3(C)[C@]3(C)CCC4C(C)(C)c5n[nH]c(N)c5C[C@]4(C)C3C2)cc1` (stereo in doubt) [Compound 10, (4aS,6aS,6bR,13aR)-12-Amino-15-(4-(dimethylamino)phenyl)-2,2,6a,6b,9,9,13a-heptamethyl-2,3,4,4a,5,6,6a,6b,7,8,8a,9,11,13,13a,13b,14,15b-octadecahydro-1H-chryseno[1,2-f]indazole-4a-carboxylic acid], for which the IC85 came to 0.5 µg/mL (≈ 0.816 µM) with P. aeruginosa (setting [1]) and 1 µg/mL (≈ 1.63 µM) in the assay on E. coli (setting [2]).
With `CC1(C)CC[C@]2(C(=O)O)CC[C@]3(C)C(=C(c4ccc(N5CCOCC5)nc4)CC4[C@@]5(C)Cc6c(n[nH]c6N)C(C)(C)[C@@H]5CC[C@]43C)[C@@H]2C1` (stereo partly drawn) [Compound 54, (4aS,6aS,6bR,8aR,13aR,15bS)-12-Amino-2,2,6a,6b,9,9,13a-heptamethyl-15-(6-morpholinopyridin-3-yl)-2,3,4,4a,5,6,6a,6b,7,8,8a,9,11,13,13a,13b,14,15b-octadecahydro-1H-chryseno[1,2-f]indazole-4a-carboxylic acid], the results for the IC85 with P. aeruginosa (setting [3]) and in the assay on E. coli (setting [4]) were 1 µg/mL (≈ 1.52 µM) and 2 µg/mL (≈ 3.05 µM), respectively.
In the same order, the values of `CC1(C)CC[C@]2(C(=O)O)CC[C@]3(C)C(=C(Br)CC4[C@@]5(C)Cc6c(n[nH]c6N)C(C)(C)[C@@H]5CC[C@]43C)[C@@H]2C1` (stereo partly drawn) [Compound 25, (4aS,6aS,6bR,8aR,13aR,15bR)-12-Amino-15-bromo-2,2,6a,6b,9,9,13a-heptamethyl-2,3,4,4a,5,6,6a,6b,7,8,8a,9,11,13,13a,13b,14,15b-octadecahydro-1H-chryseno[1,2-f]indazole-4a-carboxylic acid] are 0.5 µg/mL (≈ 0.873 µM) and more than 2 µg/mL.
For `Cn1cc2c(n1)C(C)(C)C1CC[C@]3(C)C(CC=C4C5CC(C)(C)CC[C@]5(C(=O)O)CC[C@]43C)[C@@]1(C)C2` (stereo partly drawn) [E], the IC85 with P. aeruginosa (setting [5]) was 2 µg/mL (≈ 4.06 µM); with E. coli (setting [6]), more than 16 µg/mL.
For `CC1(C)CC[C@]2(C(=O)O)CC[C@]3(C)C(=C(c4cccc(C(N)=O)c4)CC4[C@@]5(C)Cc6c(n[nH]c6N)C(C)(C)C5CC[C@]43C)C2C1` (stereo partly drawn) [Compound 19, (4aS,6aS,6bR,13aR)-12-Amino-15-(3-carbamoylphenyl)-2,2,6a,6b,9,9,13a-heptamethyl-2,3,4,4a,5,6,6a,6b,7,8,8a,9,11,13,13a,13b,14,15b-octadecahydro-1H-chryseno[1,2-f]indazole-4a-carboxylic acid], the IC85 with P. aeruginosa (setting [3]) and in the assay on E. coli (setting [4]) was 1 µg/mL (≈ 1.63 µM) each time.
`CC1(C)CC[C@]2(C(=O)O)CC[C@]3(C)C(=C(c4cccc5c4CCNC5)CC4[C@@]5(C)Cc6c(n[nH]c6N)C(C)(C)C5CC[C@]43C)C2C1` (stereo partly drawn) [Compound 47, (4aS,6aS,6bR,13aR)-12-Amino-2,2,6a,6b,9,9,13a-heptamethyl-15-(1,2,3,4-tetrahydroisoquinolin-5-yl)-2,3,4,4a,5,6,6a,6b,7,8,8a,9,11,13,13a,13b,14,15b-octadecahydro-1H-chryseno[1,2-f]indazole-4a-carboxylic acid]: the IC85 in the assay on P. aeruginosa (setting [3]) was found to be 0.5 µg/mL (≈ 0.8 µM); in the assay on E. coli (setting [4]), 1 µg/mL (≈ 1.6 µM).
Regarding `CC1(C)CC[C@]2(C(=O)O)CC[C@]3(C)C(=C(Cl)CC4[C@@]5(C)Cc6c(n[nH]c6N)C(C)(C)C5CC[C@]43C)C2C1` (stereo partly drawn) [Compound 24, (4aS,6aS,6bR,13aR)-12-Amino-15-chloro-2,2,6a,6b,9,9,13a-heptamethyl-2,3,4,4a,5,6,6a,6b,7,8,8a,9,11,13,13a,13b,14,15b-octadecahydro-1H-chryseno[1,2-f]indazole-4a-carboxylic acid], the results for the IC85 in the assay on P. aeruginosa (setting [3]) and with E. coli (setting [4]) were 0.5 µg/mL (≈ 0.947 µM) and 1 µg/mL (≈ 1.89 µM), respectively.
For `CC1(C)CC[C@]2(c3cc(N)[nH]n3)CC[C@]3(C)C(=CCC4[C@@]5(C)Cc6c(n[nH]c6N)C(C)(C)C5CC[C@]43C)C2C1` (stereo partly drawn) [Compound 60, (4aS,6aS,6bR,13aR)-4a-(5-Amino-1 H-pyrazol-3-yl)-2,2,6a,6b,9,9,13a-heptamethyl-2,3,4,4a,5,6,6a,6b,7,8,8a,9,11,13,13a,13b,14,15b-octadecahydro-1H-chryseno[1,2-f]indazol-12-amine], the results for the IC85 in the assay on P. aeruginosa (setting [7]) and in the assay with E. coli (setting [8]) were 0.5 µg/mL (≈ 0.942 µM) and 1 µg/mL (≈ 1.88 µM), respectively.
Take `CC1(C)CC[C@]2(C(=O)O)CC[C@]3(C)C(=CC[C@@H]4[C@@]5(C)Cc6c(noc6N)C(C)(C)[C@@H]5CC[C@]43C)[C@@H]2C1` [K]: the IC85 with P. aeruginosa (setting [5]) and in the assay with E. coli (setting [6]) was more than 8 µg/mL throughout.
Take `CC1(C)CC[C@]2(C(=O)O)CC[C@]3(C)C(=C(c4c[nH]c(CN5CCOCC5)c4)CC4[C@@]5(C)Cc6c(n[nH]c6N)C(C)(C)[C@@H]5CC[C@]43C)[C@@H]2C1` (stereo partly drawn) [Compound 9, (4aS,6aS,6bR,8aR,13aR,15bS)-12-Amino-2,2,6a,6b,9,9,13a-heptamethyl-15-(5-(morpholinomethyl)-1H-pyrrol-3-yl)-2,3,4,4a,5,6,6a,6b,7,8,8a,9,11,13,13a,13b,14,15b-octadecahydro-1H-chryseno[1,2-f]indazole-4a-carboxylic acid]: the IC85 with P. aeruginosa (setting [1]) worked out at 0.5 µg/mL (≈ 0.76 µM); in the assay with E. coli (setting [2]) it was 1 µg/mL (≈ 1.52 µM).
For the compound `Cc1c([C@]23CCC(C)(C)CC2C2=CCC4[C@@]5(C)Cc6c(n[nH]c6N)C(C)(C)C5CC[C@@]4(C)[C@]2(C)CC3)n[nH]c1O` (stereo partly drawn) [Compound 82, 3-((4aS,6aS,6bR,13aR)-12-Amino-2,2,6a,6b,9,9,13a-heptamethyl-2,3,4,4a,5,6,6a,6b,7,8,8a,9,11,13,13a,13b,14,15b-octadecahydro-1H-chryseno[1,2-f]indazol-4a-yl)-4-methyl-1H-pyrazol-5-ol], the values for the IC85 in the assay on P. aeruginosa (setting [7]) and with E. coli (setting [8]) were 0.5 µg/mL (≈ 0.916 µM) and 1 µg/mL (≈ 1.83 µM), respectively.
Turning to `CC1(C)CC[C@]2(C(=O)O)CC[C@]3(C)C(=C(c4ccc5[nH]ccc5c4)CC4[C@@]5(C)Cc6c(n[nH]c6N)C(C)(C)C5CC[C@]43C)C2C1` (stereo partly drawn) [Compound 49, (4aS,6aS,6bR,13aR)-12-Amino-15-(1H-indol-5-yl)-2,2,6a,6b,9,9,13a-heptamethyl-2,3,4,4a,5,6,6a,6b,7,8,8a,9,11,13,13a,13b,14,15b-octadecahydro-1H-chryseno[1,2-f]indazole-4a-carboxylic acid], the IC85 with P. aeruginosa (setting [3]) was 0.5 µg/mL (≈ 0.821 µM); with E. coli (setting [4]), more than 1 µg/mL.
Regarding `COc1ccc(C2=C3[C@@H]4CC(C)(C)CC[C@]4(C(=O)O)CC[C@@]3(C)[C@]3(C)CC[C@H]4C(C)(C)c5n[nH]c(N)c5C[C@]4(C)C3C2)cn1` (stereo partly drawn) [Compound 42, (4aS,6aS,6bR,8aR,13aR,15bS)-12-Amino-15-(6-methoxypyridin-3-yl)-2,2,6a,6b,9,9,13a-heptamethyl-2,3,4,4a,5,6,6a,6b,7,8,8a,9,11,13,13a,13b,14,15b-octadecahydro-1H-chryseno[1,2-f]indazole-4a-carboxylic acid], the IC85 in the assay on P. aeruginosa (setting [3]) was 0.25 µg/mL (≈ 0.416 µM); in the assay with E. coli (setting [4]) it was 1 µg/mL (≈ 1.66 µM).

These data come from patent EP2712863B1, “Novel inhibitors of bacterial biofilms and related methods” (Sequoia Sciences, Inc., priority 2012, dated 2014).
